# Patent US4933330A, “Benzoic acid derivatives and use thereof” (priority 1987, dated 1990)
# Columns and labels:
# [1] = In vivo absorption of 4-ASA (serum and urine) in healthy volunteers; conditions: for Highest serum levels recalculated to treatment of the whole body, passive and active side: versus 4-ASA perorally in tuberculosis treatment
# [2] = In vivo dermal absorption of 5-ASA (serum and urine) in healthy volunteers
# Method: Serum concentrations and the amount excreted in urine of 5-ASA and the 5-ASA metabolite: […] The study was performed as an open study, divided into the following parts: Part I: 2 volunteers, normal skin, single dose. Part IA: 1 volunteer, stripped skin and 1 volunteer, normal skin and occlusion, single dose. Part IB: 1 volunteer, stripped skin and occlusion, single dose. Part II: 6 volunteers, stripped skin day 1, and occlusion day 1 and day 8, multiple doses. Part I, IA and IB: 0.5 g 5% 5-ASA cream was applied to one forearm of the volunteer and blood samples were taken at intervals for 6 hours from both arms. 24 hour urine samples were collected. […] Blood and urine were collected as described above on day 1 and 8. […] Clinical chemistry tests showing the state of the patient (blood status, liver and kidney function, etc.) were performed before and after the study.
# [3] = system: psoriasis and contact dermatitis; assay: Conclusion of clinical testing (psoriasis and contact dermatitis); type: in vivo, patients; conditions: active formulations
# Method: 1. Patients with wide-spread psoriasis receiving systemic treatment with methotrexate, retinoids or topical treatment with dithranol or tar-preparations. An area of 5×5 cm^2 was used for treatment with compositions 1, 2 and 3 in an increasing concentration. A total of 5 patients were treated on in-patient basis, and the results were evaluated 2-3 times a week.
# 2. In 3 out of 5 other patients treated with 5-ASA cream under occulsion with a thin plastic film a dramatic effect was seen after 4-6 days.
# 3. 5% 5-ASA cream and placebo cream was compared in a randomized, double-blind, bilaterial trial with 5 psoriatic in-patients. Two contralateral psoriasis plaques of the same severity were treated for one week with the 5-ASA cream and placebo cream, respectively, with the concomitant use of an occulsive dressing.
# 4. 5% 4-ASA cream and placebo cream were compared in a randomized, double blind, bilateral trial with 10 psoriasis out-patients. […]
# Ten patients with known nickel allergy and 15 patients with known allergy to other compounds were tested with 5% 5-ASA cream and placebo cream in a randomized, double blind, bilateral trial. […] The study areas were occluded with Finn chambers for 48 hours, and the patients' symptoms were recorded. After 72 hours, the patch test reactions were evaluated and the patients' symptoms recorded.
# [4] = system: psoriasis plaques; assay: Randomized, bilateral trial of 5% 5-ASA cream vs placebo, 48 psoriasis patients; type: in vivo
# Method: Objective: To compare 5% 5-ASA cream with placebo cream in psoriasis patients.
# 5% 5-ASA cream and placebo cream were compared in a randomized, bilateral trial with 48 psoriasis patients (24 hospitalized and 24 out-patients). Two contralateral psoriasis plaques (5×5 cm^2 -10×10 cm^2) of the same severity were treated 3 times daily for two weeks (occulsion at night) with the 5-ASA and placebo creams, respectively.
# Any reported adverse reactions were noted.
# The differences between the "active side" (treated with 5-ASA) and the "placebo side" were statistically tested by a binomial distribution test.
# [5] = system: nickel allergy; assay: Contact dermatitis/allergy test, patients with nickel allergy; type: in vivo; conditions: 5% 5-ASA cream vs placebo; after 72 hours
# Method: (§1) Ten patients with known nickel allergy and 15 patients with known allergy to other compounds were tested with 5% 5-ASA cream and placebo cream in a randomized, double blind, bilateral trial. The allergen was applied on two 1×1 cm^2 areas and the study creams were then applied on the left and right 2×2 cm^2 study areas, respectively. The study areas were occluded with Finn chambers for 48 hours, and the patients' symptoms were recorded. After 72 hours, the patch test reactions were evaluated and the patients' symptoms recorded.
# [6] = system: rat; conditions: intravenously; cited from earlier work
# [7] = system: allergy to other compounds; assay: Contact dermatitis/allergy test, patients with allergy to other compounds; type: in vivo; conditions: 5% 5-ASA cream vs placebo
# Method: as §1
# [8] = In vitro dermal absorption in Franz Diffusion cells; type: in vitro ADME, human; conditions: for Absorbed amounts, 5-ASA versus prodrug No. 350 / Detection of unchanged prodrug after penetration of the skin / Production of 5-ASA in free form after absorption: human skin in vitro
# Method: Franz Diffusion cells (FDC) are systems for the measurements of percutaneous absorption by the finite dose technique. Human skin is mounted in specially constructed diffusion chambers (FDC), and the skin is batched from below by a reservoir solution. 3×10 μl solution (1 mg/ml) of the following compounds were applied to human skin in Franz diffusion cells (0.636 cm^2) and kept at 37° C. by thermostatic control: Compound 1=5-ASA […] Samples were taken from the reservoir at intervals for 76 hours and analyzed by HPLC for 5-ASA and the prodrugs themselves.
# [9] = chronic inflammatory bowel disease; cited from earlier work
# [10] = human, serum, topical or ocular, 25 mg
# [11] = human, in vivo, topical or ocular
# [12] = % of dose through the skin during 76 hours, 3×10 μl of 1 mg/ml, 37° C.
compound,measurement,setting,value
"CC(=O)Nc1ccc(C(=O)O)c(O)c1 [Ac-4-ASA, N-acetyl-4-aminosalicylic acid]","Highest serum levels recalculated to treatment of the whole body, passive and active side",[1],within the values reported after use of 4-ASA perorally in tuberculosis treatment
same,Amount in urine,[1]; versus peroral administration,very small amounts in urine
"CC(=O)Nc1ccc(O)c(C(=O)O)c1 [Ac-5-ASA, 2-Hydroxy-5-acetamidobenzoic acid]",Amount in urine versus peroral or rectal administration,"[2]; human, in vivo",much lower in percentages than after peroral or rectal administration
same,"Maximum serum concentration recalculated to treatment of the whole body, active side","[2]; human, in vivo",2-3 times the values reported in studies with SASP
same,"Maximum serum concentration recalculated to treatment of the whole body, passive side","[2]; human, in vivo",within the values reported in studies with salazosulphapyridine (SASP)
same,Recovery in urine,"[2]; human, in vivo",Only Ac-5-ASA were recovered in urine
same,Median serum concentration,"[2]; human, in vivo, topical or ocular, 0.25 h",13.5 ng/mL
same,Median serum concentration,"[2]; human, in vivo, topical or ocular, 0.5 h",7.0 ng/mL
same,Median serum concentration,"[2]; human, in vivo, topical or ocular, 0.75 h",10.3 ng/mL
same,Median serum concentration,"[2]; human, in vivo, topical or ocular, 1.5 h",14.6 ng/mL
same,Median serum concentration,"[2]; human, in vivo, topical or ocular, 3 h",8.2 ng/mL
"Nc1ccc(C(=O)O)c(O)c1 [Example 4-ASA, 4-aminosalicylic acid]",Efficacy vs placebo in comparative trials,[3],more efficient than placebo
same,concentration at 0.25 h,[1]; [10],24 ng/mL
same,concentration at 0.5 h,[1]; [10],43 ng/mL
same,concentration at 1.5 h,[1]; [10],16 ng/mL
same,"Highest serum levels recalculated to treatment of the whole body, passive and active side",[1],within the values reported after use of 4-ASA perorally in tuberculosis treatment
"Nc1ccc(O)c(C(=O)O)c1 [Example 5-ASA, 5-aminosalicylic acid, reference compound]",Effect compared to placebo (conclusion),[4],A significant effect
same,Patients showing no difference regarding pruritus,[5],two
same,Patients with preference to 5-ASA regarding pruritus,[5],Seven out of 10
same,"Patients with preference to 5-ASA side, investigator's opinion and patch tests",[5],9 out of 10
same,Nephrotoxic dose,[6],300 to 900 mg/kg
same,Absorption through normal skin,"[2]; 5% 5-ASA cream, normal skin",No absorption through normal skin was detected
same,Absorption through occluded skin,"[2]; 5% 5-ASA cream, occluded skin, late",Small amounts
same,Absorption through both stripped and occluded skin,"[2]; 5% 5-ASA cream, stripped and occluded skin",larger amounts
same,Absorption through stripped skin,"[2]; 5% 5-ASA cream, stripped skin, early",Small amounts
same,"Maximum serum concentration recalculated to treatment of the whole body, active side","[2]; human, in vivo",2-3 times the values reported in studies with SASP
same,"Maximum serum concentration recalculated to treatment of the whole body, passive side","[2]; human, in vivo",within the values reported in studies with salazosulphapyridine (SASP)
same,concentration at 0.25 h,[2]; [11],19.4 ng/mL
same,concentration at 0.5 h,[2]; [11],8.3 ng/mL
same,concentration at 0.75 h,[2]; [11],7.3 ng/mL
same,concentration at 1 h,[2]; [11],8.2 ng/mL
same,concentration at 1.5 h,[2]; [11],7.1 ng/mL
same,concentration at 2 h,[2]; [11],3.9 ng/mL
same,concentration at 4 h,[2]; [11],17.2 ng/mL
same,concentration at 6 h,[2]; [11],22.9 ng/mL
same,Preference of patients vs placebo,[7],about twice as many patients preferred the 5-ASA treatment in comparison with placebo
same,Efficacy vs placebo in comparative trials,[3],more efficient than placebo
same,"% absorbed, compound measured: 5-ASA",[8]; [12],7.8-15.6%
same,"Absorbed amounts, 5-ASA versus prodrug No. 350",[8],of the same size
"CCOC(=O)c1cc(N)ccc1O [Prodrug No. 345, Ethyl 2-hydroxy-5-aminobenzoate]","% absorbed, compound measured: 5-ASA",[8]; [12],18.2-24.0%
same,"% absorbed, compound measured: prodrug itself",[8]; [12],36.1-45.4%
same,"Enhanced absorption, % of the dose","[8]; as much as, 76 hours",≤ 70 % of the dose
same,Detection of unchanged prodrug after penetration of the skin,[8],detected unchanged after penetration of the skin
same,Production of 5-ASA in free form after absorption,[8],could produce 5-ASA in free form after absorption through human skin in vitro
"CCOC(=O)c1cc(N)ccc1OC(C)=O [Prodrug No. 350, Ethyl 2-acetoxy-5-aminobenzoate]","% absorbed, compound measured: 5-ASA",[8]; [12],11.9-16.8%
same,"Absorbed amounts, 5-ASA versus prodrug No. 350",[8],of the same size
same,Detection of unchanged prodrug after penetration of the skin,[8],could not be detected unchanged
same,Production of 5-ASA in free form after absorption,[8],could produce 5-ASA in free form after absorption through human skin in vitro
Nc1ccc(S(=O)(=O)Nc2ccccn2)cc1 [Sulphapyridine],Side effects after treatment with salazosulphapyridine,[9],responsible for the side effects reported after treatment with salazosulphapyridine
